# According to patent US12384789B2, “Compounds for treating Huntington's disease” (PTC Therapeutics, Inc., priority 2017, dated 2025):
# Tested on: Endogenous Huntingtin Protein
# Assay: Endogenous Huntingtin Protein Assay (Meso Scale Discovery ELISA-based electrochemiluminescence)
# Type: cell-based
# Conditions: MSD electrochemiluminescence, Table 1
# How it was run: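 MSD electrochemiluminescence sandwich ELISA: MW1 (expanded polyQ) or MAB2166 capture antibody at 1 μg/mL, samples incubated overnight at 4° C. Detection with rabbit monoclonal #5656S then SULFO-TAG anti-rabbit antibody, each 0.25 μg/mL for 1 h at room temperature.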
row,Compound,IC50
1,"Cc1cn2nc(-c3cc(F)c4cc(C5CCCN(C)CC5)nnc4c3)cc(C)c2n1 (centres unmarked) [Compound 188, 7-(2,8-dimethylimidazo[1,2-b]pyridazin-6-yl)-5-fluoro-3-(1-methylazepan-4-yl)cinnoline]",≤ 100 nM
2,"Cn1cc2c(F)c(-c3cc(F)c4cc(C5CCNCC5)nnc4c3)ccc2n1 [Compound 109, 5-fluoro-7-(4-fluoro-2-methyl-2H-indazol-5-yl)-3-(piperidin-4-yl)cinnoline]",500 to 1000 nM
3,"CCc1cc(-c2cc(F)c3cc(C4CCNCC4)nnc3c2)nc2cn(C)nc12 [Compound 172, 7-(7-ethyl-2-methyl-2H-pyrazolo[4,3-b]pyridin-5-yl)-5-fluoro-3-(piperidin-4-yl)cinnoline]",≤ 100 nM
4,"Cc1cn2cc(-c3cc(F)c4nc(C5CCNCC5)ccc4c3)cc(F)c2n1 [Compound 50, 8-fluoro-6-(8-fluoro-2-methylimidazo[1,2-a]pyridin-6-yl)-2-(piperidin-4-yl)quinoline]",≤ 100 nM
5,"Cc1cc(-c2ccc3nc(C4CC(C)(C)NC(C)(C)C4)ccc3c2)cc2cn(C)nc12 [Compound 14, 6-(2,7-dimethyl-2H-indazol-5-yl)-2-(2,2,6,6-tetramethylpiperidin-4-yl)quinoline]",100 to 500 nM
6,"CCN1CCC(c2cc(F)c3cc(-c4cc(F)c5nc(C)cn5c4)nnc3c2)CC1 [Compound 144, 7-(1-ethylpiperidin-4-yl)-5-fluoro-3-(8-fluoro-2-methylimidazo[1,2-a]pyridin-6-yl)cinnoline]",≤ 100 nM
7,"CCN1CCC(c2cc3c(F)cc(-c4cc(C(C)C)c5nc(C)cn5n4)cc3nn2)CC1 [Compound 222, 3-(1-ethylpiperidin-4-yl)-5-fluoro-7-[2-methyl-8-(propan-2-yl)imidazo[1,2-b]pyridazin-6-yl]cinnoline]",100 to 500 nM
8,Cc1cn2nc(-c3cc(F)c4cc(C5C[C@@H](C)N(C)[C@@H](C)C5)nnc4c3)cc(C)c2n1 (some centres unmarked) [Compound 161],≤ 100 nM
9,"Cc1cn2nc(-c3cc(F)c4cc(C5CCCNCC5)nnc4c3)cc(C)c2n1 (centres unmarked) [Compound 129, 3-(azepan-4-yl)-7-(2,8-dimethylimidazo[1,2-b]pyridazin-6-yl)-5-fluorocinnoline]",≤ 100 nM
10,"Cc1cn2nc(-c3cc(F)c4cc(C5CCN(CCO)CC5)nnc4c3)cc(CO)c2n1 [Compound 181, 2-(4-{5-fluoro-7-[8-(hydroxymethyl)-2-methylimidazo[1,2-b]pyridazin-6-yl]cinnolin-3-yl}piperidin-1-yl)ethan-1-ol]",≤ 100 nM
11,"CCN1CCC(c2cc3c(F)cc(-c4cc(C#N)c5nc(C)cn5n4)cc3nn2)CC1 [Compound 114, 6-[3-(1-ethylpiperidin-4-yl)-5-fluorocinnolin-7-yl]-2-methylimidazo[1,2-b]pyridazine-8-carbonitrile]",≤ 100 nM
12,"Cc1cc2oc(-c3cc(F)c4cc(C5CCN(CCO)CC5)nnc4c3)nc2c(C)n1 [Compound 213, 2-{4-[7-(4,6-dimethyl[1,3]oxazolo[4,5-c]pyridin-2-yl)-5-fluorocinnolin-3-yl]piperidin-1-yl}ethan-1-ol]",100 to 500 nM
13,"CCCc1cc(-c2cc(F)c3cc(C4CCN(CC)CC4)nnc3c2)nn2cc(C)nc12 [Compound 212, 3-(1-ethylpiperidin-4-yl)-5-fluoro-7-(2-methyl-8-propylimidazo[1,2-b]pyridazin-6-yl)cinnoline]",100 to 500 nM
14,"Cc1cn2nc(-c3cc(F)c4cc(C5CCNCC5)nnc4c3)cc(C(C)C)c2n1 [Compound 211, 5-fluoro-7-[2-methyl-8-(propan-2-yl)imidazo[1,2-b]pyridazin-6-yl]-3-(piperidin-4-yl)cinnoline]",≤ 100 nM
15,"Cc1cn2nc(-c3cc(F)c4cc(C5CC(C)N(CCO)C(C)C5)nnc4c3)cc(C)c2n1 (centres unmarked) [Compound 155, 2-{(25,65)-4-[7-(2,8-dimethylimidazo[1,2-b]pyridazin-6-yl)-5-fluorocinnolin-3-yl]-2,6-dimethylpiperidin-1-yl}ethan-1-ol]",≤ 100 nM
16,"Cc1cn2nc(-c3cc(F)c4cc(C5CCN(C)CC5)nnc4c3)cc(C)c2n1 [Compound 79, 7-(2,8-dimethylimidazo[1,2-b]pyridazin-6-yl)-5-fluoro-3-(1-methylpiperidin-4-yl)cinnoline]",≤ 100 nM
17,"Cc1cn2nc(-c3cc(F)c4cc(C5CCN(CCO)CC5)nnc4c3)cc(C#N)c2n1 [Compound 178, 6-{5-fluoro-3-[1-(2-hydroxyethyl)piperidin-4-yl]cinnolin-7-yl}-2-methylimidazo[1,2-b]pyridazine-8-carbonitrile]",≤ 100 nM
18,"Cc1cn2cc(-c3nnc4cc(C5CC6CCC(C5)N6)ccc4n3)cc(F)c2n1 (centres unmarked) [Compound 56, 7-(8-azabicyclo[3.2.1]oct-3-yl)-3-(8-fluoro-2-methylimidazo[1,2-a]pyridin-6-yl)-1,2,4-benzotriazine]",≤ 100 nM
19,"Cc1cn2cc(-c3cc(F)c4cc(C5CCNCC5)nnc4c3)cc(C#N)c2n1 [Compound 93, 6-[5-fluoro-3-(piperidin-4-yl)cinnolin-7-yl]-2-methylimidazo[1,2-a]pyridine-8-carbonitrile]",≤ 100 nM

row,Compound,IC50
1,"Cn1cc2cc(-c3cc(F)c4nc(C5CCNCC5)ncc4c3)cc(C#N)c2n1 [Compound 35, 5-[8-fluoro-2-(piperidin-4-yl)quinazolin-6-yl]-2-methyl-2H-indazole-7-carbonitrile]",≤ 100 nM
2,"Cc1cn2cc(-c3nnc4cc(C5CCNCC5)cc(F)c4n3)cc(F)c2n1 [Compound 41, 5-fluoro-3-(8-fluoro-2-methylimidazo[1,2-a]pyridin-6-yl)-7-(piperidin-4-yl)-1,2,4-benzotriazine]",100 to 500 nM
3,"Cc1cn2nc(-c3cc(F)c4cc(N5C[C@@H]6C[C@H]5CN6C)nnc4c3)cc(C)c2n1 [Compound 215, 7-(2,8-dimethylimidazo[1,2-b]pyridazin-6-yl)-5-fluoro-3-[(1S,4S)-5-methyl-2,5-diazabicyclo[2.2.1]heptan-2-yl]cinnoline]",≤ 100 nM
4,"Cc1cc(C2CCNCC2)nc2ccc(-c3ccc4nn(C)cc4c3)cc12 [Compound 5, 4-methyl-6-(2-methyl-2H-indazol-5-yl)-2-(piperidin-4-yl)quinoline]",1000 to 3000 nM
5,"Cc1cc2nc(-c3cc(F)c4cc(C5CCNCC5)nnc4c3)sc2c(C)n1 [Compound 196, 7-(4,6-dimethyl[1,3]thiazolo[5,4-c]pyridin-2-yl)-5-fluoro-3-(piperidin-4-yl)cinnoline]",≤ 100 nM
6,"Cc1cn2nc(-c3cc(F)c4cc(C5CCN(CCN(C)C)CC5)nnc4c3)cc(C)c2n1 [Compound 127, 2-{4-[7-(2,8-dimethylimidazo[1,2-b]pyridazin-6-yl)-5-fluorocinnolin-3-yl]piperidin-1-yl}-N,N-dimethylethan-1-amine]",≤ 100 nM
7,"Cc1nc2c(C)cc(-c3cc(F)c4nc(C5CCNCC5)nnc4c3)cc2o1 [Compound 62, 7-(2,4-dimethyl-1,3-benzoxazol-6-yl)-5-fluoro-3-(piperidin-4-yl)-1,2,4-benzotriazine]",≤ 100 nM
8,"Cc1cn2nc(-c3cc(F)c4cc(C5CCNCC5)nnc4c3)cc(OCCCn3cccn3)c2n1 [Compound 141, 5-fluoro-7-{2-methyl-8-[3-(1H-pyrazol-1-yl)propoxy]imidazo[1,2-b]pyridazin-6-yl}-3-(piperidin-4-yl)cinnoline]",≤ 100 nM
9,"Cc1cn2nc(-c3cc(F)c4cc(N5C[C@@H](C)N[C@@H](C)C5)nnc4c3)cc(C)c2n1 [Compound 81, 7-(2,8-dimethylimidazo[1,2-b]pyridazin-6-yl)-3-[(3R,5S)-3,5-dimethylpiperazin-1-yl]-5-fluorocinnoline]",≤ 100 nM
10,"Cc1cn2nc(-c3cc(F)c4cc(C5CCNCC5)nnc4c3)cc(-n3ccnc3)c2n1 [Compound 194, 5-fluoro-7-[8-(1H-imidazol-1-yl)-2-methylimidazo[1,2-b]pyridazin-6-yl]-3-(piperidin-4-yl)cinnoline]",100 to 500 nM
11,"CCN1CCC(c2cc3c(F)cc(-c4nc5c(C)nc(C)cc5s4)cc3nn2)CC1 [Compound 147, 7-(4,6-dimethyl[1,3]thiazolo[4,5-c]pyridin-2-yl)-3-(1-ethylpiperidin-4-yl)-5-fluorocinnoline]",100 to 500 nM
12,"Cc1nc2ccc(-c3cc(F)c4cc(C5CCNCC5)nnc4c3)cn2n1 [Compound 94, 5-fluoro-7-(2-methyl[1,2,4]triazolo[1,5-a]pyridin-6-yl)-3-(piperidin-4-yl)cinnoline]",100 to 500 nM
13,"CCN1CCC(c2cc3c(F)cc(-c4cc(C)c5nc(C)oc5n4)cc3nn2)CC1 [Compound 152, 7-(2,7-dimethyl[1,3]oxazolo[5,4-b]pyridin-5-yl)-3-(1-ethylpiperidin-4-yl)-5-fluorocinnoline]",≤ 100 nM
14,"Cc1cn2cc(-c3cc(F)c4nc(C5CCNCC5)nnc4c3)cc(C)c2n1 [Compound 60, 7-(2,8-dimethylimidazo[1,2-a]pyridin-6-yl)-5-fluoro-3-(piperidin-4-yl)-1,2,4-benzotriazine]",100 to 500 nM
15,"Cn1cc2cc(-c3cc(F)c4cc(C5CCNCC5)nnc4c3)c(F)cc2n1 [Compound 97, 5-fluoro-7-(6-fluoro-2-methyl-2H-indazol-5-yl)-3-(piperidin-4-yl)cinnoline]",500 to 1000 nM
16,"CCN1CCC(c2cc3c(F)cc(-c4cc(CC#N)c5nc(C)cn5n4)cc3nn2)CC1 [Compound 205, {6-[3-(1-ethylpiperidin-4-yl)-5-fluorocinnolin-7-yl]-2-methylimidazo[1,2-b]pyridazin-8-yl}acetonitrile]",100 to 500 nM
17,"Cc1cn2nc(-c3cc(F)c4cc(C5C[C@@H](C)N(C)[C@H](C)C5)nnc4c3)cc(C)c2n1 (stereo partly drawn) [Compound 124, 7-(2,8-dimethylimidazo[1,2-b]pyridazin-6-yl)-5-fluoro-3-[(25,6S)-1,2,6-trimethylpiperidin-4-yl]cinnoline]",≤ 100 nM
18,"Cc1cn2cc(-c3cc4c(F)cc(C5=CCNCC5)cc4nn3)cc(F)c2n1 [Compound 117, 5-fluoro-3-(8-fluoro-2-methylimidazo[1,2-a]pyridin-6-yl)-7-(1,2,3,6-tetrahydropyridin-4-yl)cinnoline]",≤ 100 nM
19,"COCCOc1cc(-c2cc(F)c3nc(C4CCNCC4)ccc3c2)nn2cc(C)nc12 [Compound 53, 8-fluoro-6-[8-(2-methoxyethoxy)-2-methylimidazo[1,2-b]pyridazin-6-yl]-2-(piperidin-4-yl)quinoline]",100 to 500 nM
